Patent publication US6680373B2, “P2U2 receptor antibodies” (Millennium Pharmaceuticals, Inc., priority 1995, dated 2004)

Target: T1, P2U2 receptor (Homo sapiens, UniProt Q9BXA5)
T1 construct: The native human receptor was produced in oocytes by cloning the 500 bp 5′ truncation of the full-length kidney cDNA clone; expressed in transfected cells; host or cells: Xenopus laevis oocytes injected with capped in vitro transcribed RNA (pcDNA3 template, T7 polymerase)
T1 sequence (Q9BXA5 1-334): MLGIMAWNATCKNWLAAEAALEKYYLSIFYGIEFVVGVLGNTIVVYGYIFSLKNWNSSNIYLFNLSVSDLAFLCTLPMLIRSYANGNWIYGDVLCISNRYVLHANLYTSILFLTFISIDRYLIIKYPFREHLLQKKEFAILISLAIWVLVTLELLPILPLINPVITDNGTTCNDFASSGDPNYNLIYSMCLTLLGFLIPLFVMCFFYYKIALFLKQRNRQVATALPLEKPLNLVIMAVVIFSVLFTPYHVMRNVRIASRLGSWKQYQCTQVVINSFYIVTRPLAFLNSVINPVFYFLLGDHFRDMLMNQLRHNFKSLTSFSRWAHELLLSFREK
Assay: Two-electrode voltage clamp of agonist-induced chloride currents in Xenopus oocytes injected with P2U2 receptor cRNA
Format: cell-based
Conditions: receptor expressed in Xenopus oocytes; for order of specificity as agonists of the P2U2 receptor: potencies close in value, a mere five-fold difference
Procedure: As indicated above, receptor activation can also be measured by means of the two-electrode voltage clamp assay. In this assay, agonist-induced inward chloride currents are measured in voltage-clamped oocytes that express the P2U2 receptor. The technique suitable for use in the instant invention is described by Julius, et al, Science 241:558-563 (1988). The native human receptor was produced in oocytes by cloning the 500 bp 5' truncation of the full-length kidney cDNA clone into the mammalian expression vector pcDNA3 (Invitrogen). Linearized DNA was used as a template for T7 polymerase (Ambion, Promega) for generation of capped in vitro transcribed mRNA following the suppliers specifications. Adult female Xenopus laevis were anesthetized in […] 3-aminobenzoic acid ethyl ester for 10 minutes and 1 or 2 ovarian lobes were removed, followed by immediate suturing of the incisions. Oocytes were defolliculated at room temperature with collagenase (2 mg/ml) in Ca^+2-free medium (OR-2) for 1-2 hr. Oocytes were stored at […] in ND-96 (96 mM sodium chloride, 2 mM potassium chloride, 1.8 mM calcium chloride, 1 mM magnesium chloride, 5 mM HEPES (N[2-hydroxyethylpiperazine-N'[2-ethanesulfonic acid) with penicillin/streptomycin and injected with 50 nl RNA (1-2 μg/μl) 18-24 h after removal of the oocytes. Before recording, injected oocytes were stored at 18° C. for 2-3 days with daily media changes. A two-electrode voltage clamp (Axon Axoclamp2B) was used to measure agonist-induced currents from individual oocytes. Electrodes were pulled to […] of 0.2-1 MΩ and filled with 3M KCl. Recordings were made at room temperature in ND96 from oocytes clamped at -70 mV using different agonist concentrations. Water-injected oocytes were used as a control.

activation of the P2U2 receptor	order of specificity as agonists of the P2U2 receptor	Compound
activated	UTP>UDP>ADP>ATP	Nc1ncnc2c1ncn2[C@@H]1O[C@H](COP(=O)(O)OP(=O)(O)O)[C@@H](O)[C@H]1O [ADP]
activated	UTP>UDP>ADP>ATP	Nc1ncnc2c1ncn2[C@@H]1O[C@H](COP(=O)(O)OP(=O)(O)OP(=O)(O)O)[C@@H](O)[C@H]1O [ATP]
activated	UTP>UDP>ADP>ATP	O=c1ccn([C@@H]2O[C@H](COP(=O)(O)OP(=O)(O)O)[C@@H](O)[C@H]2O)c(=O)[nH]1 [UDP]
activated	UTP>UDP>ADP>ATP	O=c1ccn([C@@H]2O[C@H](COP(=O)(O)OP(=O)(O)OP(=O)(O)O)[C@@H](O)[C@H]2O)c(=O)[nH]1 [UTP]
